Activity calls are given as the source filed them. No cut-off for these calls is given here.
Tests used:
[1] = test system: NIH3T3; experiment: Cytotoxicity against mouse NIH3T3 cells assessed as reduction in cell viability after 24 to 72 hrs by MTT assay; type: cell-based; settings: time 24-72 hrs
[2] = test system: Mus musculus; experiment: Antifibrotic activity in C57BL/6 mouse model of bleomycin-induced lung fibrosis assessed as inhibition of pathological changes by measuring inflammatory infiltration in lung tissue at 25 to 50 mg/kg dosed via oral gavage for 14 days by Masson's trichrome staining-based histopathological analysis; type: functional, organism-based; settings: dose mg/kg 25-50, time 14.0 day
[3] = test system: Mus musculus; experiment: Antifibrotic activity in bleomycin-induced C57BL/6 mouse model of lung fibrosis assessed as reduction in Ashcroft score at 25 to 50 mg/kg dosed via oral gavage for 14 days by H and E and Masson's trichrome staining based histopathological analysis; type: functional, organism-based; settings: dose mg/kg 25-50, time 14.0 day
[4] = test system: Mus musculus; experiment: Antifibrotic activity in C57BL/6 mouse model of bleomycin-induced lung fibrosis assessed as inhibition of pathological changes by measuring collagen deposition in lung tissue at 25 to 50 mg/kg dosed via oral gavage for 14 days by Masson's trichrome staining-based histopathological analysis; type: functional, organism-based; settings: dose mg/kg 25-50, time 14.0 day
[5] = test system: NIH3T3; experiment: Antifibrotic activity in mouse NIH3T3 cells assessed as decrease in TGF-beta1 induced alpha-SMA protein expression at 40 uM after 24 hrs by Western blotting analysis; type: functional, cell-based
[6] = test system: A549; experiment: Cytotoxicity against human A549 cells assessed as reduction in cell viability after 24 to 72 hrs by MTT assay; type: functional, cell-based; settings: time hrs 24-72
[7] = test system: Mus musculus; experiment: Antifibrotic activity in C57BL/6 mouse model of bleomycin-induced lung fibrosis assessed as reduction in weight loss at 50 mg/kg dosed via oral gavage and measured for 7 to 14 days; type: functional, organism-based; settings: time day 7-14
[8] = test system: Mus musculus; experiment: Antifibrotic activity in po dosed C57BL/6 mouse model of bleomycin-induced lung fibrosis assessed as reduction in weight loss after 7 to 14 days; type: functional, organism-based; settings: dose mg/kg 25-50, time day 7-14
[9] = test system: A549; experiment: Up regulation of E-cadherin level in TGF-beta-stimulated human A549 cells at 50 uM by Western blot analysis; type: functional, cell-based; settings: time 24.0 hrs
[10] = test system: Mus musculus; experiment: Antifibrotic activity in C57BL/6 mouse model of bleomycin-induced lung fibrosis assessed as reduction in CD4+CD69+ T-cells at 25 mg/kg dosed via oral gavage for 14 days by flow cytometry analysis; type: functional, organism-based; settings: dose 25.0 […], time 14.0 day
[11] = test system: Mus musculus; experiment: Antifibrotic activity in C57BL/6 mouse model of bleomycin-induced lung fibrosis assessed as inhibition of pathological changes by measuring collagen deposition in lung tissue at 25 to 50 mg/kg dosed via oral gavage for 14 days by H and E staining-based histopathological analysis; type: functional, organism-based; settings: dose mg/kg 25-50, time 14.0 day
[12] = test system: Mus musculus; experiment: Inhibition of epithelial-mesenchymal transition in C57BL/6 mouse model of bleomycin-induced lung fibrosis assessed as increase in E-cadherin protein expression in lung tissue at 25 to 50 mg/kg dosed via oral gavage for 14 days by Western blotting analysis; type: functional, organism-based; settings: dose mg/kg 25-50, time 14.0 day
[13] = test system: Mus musculus; experiment: Antifibrotic activity in C57BL/6 mouse model of bleomycin-induced lung fibrosis assessed as reduction in dendritic cells at 25 mg/kg dosed via oral gavage for 14 days by flow cytometry analysis; type: functional, organism-based; settings: time 14.0 day
[14] = test system: Mus musculus; experiment: Antifibrotic activity in C57BL/6 mouse model of bleomycin-induced lung fibrosis assessed as reduction in CD4+CD69+ T-cells at 50 mg/kg dosed via oral gavage for 14 days by flow cytometry analysis; type: functional, organism-based; settings: time 14.0 day
[15] = test system: Mus musculus; experiment: Inhibition of epithelial-mesenchymal transition in C57BL/6 mouse model of bleomycin-induced lung fibrosis assessed as decrease in vimentin protein expression in lung tissue at 25 to 50 mg/kg dosed via oral gavage for 14 days by Western blotting analysis; type: functional, organism-based; settings: dose mg/kg 25-50, time 14.0 day
[16] = test system: Mus musculus; experiment: Antifibrotic activity in C57BL/6 mouse model of bleomycin-induced lung fibrosis assessed as reduction in dendritic cells at 50 mg/kg dosed via oral gavage for 14 days by flow cytometry analysis; type: functional, organism-based; settings: time 14.0 day
[17] = test system: A549; experiment: Antimigratory activity in human A549 cells assessed as inhibition of TGF-beta1 induced epithelial-mesenchymal transition at 50 uM pretreated with TGF-beta1 for 1 hr followed by compound addition and measured after 24 hrs by scratch wound healing based microscopic analysis; type: functional, cell-based
[18] = test system: NIH3T3; experiment: Antifibrotic activity in mouse NIH3T3 cells assessed as reduction in TGF-beta1 induced myofibroblast differentiation by measuring reduction in alpha-SMA protein expression at 40 uM after 24 hrs by immunofluorescence staining analysis; type: functional, cell-based
[19] = test system: A549; experiment: Down regulation of alpha-SMA protein expression in human A549 cells at 50 uM by Western blotting analysis; type: functional, cell-based; settings: time 24.0 hrs
[20] = test system: Mus musculus; experiment: Antifibrotic activity in C57BL/6 mouse model of bleomycin-induced lung fibrosis assessed as reduction in CD8+CD69+ T-cells at 25 mg/kg dosed via oral gavage for 14 days by flow cytometry analysis; type: functional, organism-based; settings: time 14.0 day
[21] = test system: NIH3T3; experiment: Antifibrotic activity in mouse NIH3T3 cells assessed as decrease in TGF-beta1 induced MMP-9 protein expression at 40 uM after 24 hrs by Western blotting analysis; type: functional, cell-based
[22] = test system: Mus musculus; experiment: Antifibrotic activity in C57BL/6 mouse model of bleomycin-induced lung fibrosis assessed as reduction in CD8+CD69+ T-cells at 50 mg/kg dosed via oral gavage for 14 days by flow cytometry analysis; type: functional, organism-based; settings: time 14.0 day
[23] = test system: A549; experiment: Down regulation of vimentin protein expression in human A549 cells at 50 uM by Western blotting analysis; type: functional, cell-based; settings: time 24.0 hrs
[24] = test system: A549; experiment: Inhibition of cell migration in TGF-beta-stimulated human A549 cells at 50 uM after 24 hrs by optical microscopic based wound healing assay; type: functional
[25] = test system: Mus musculus; experiment: Antifibrotic activity in C57BL/6 mouse model of bleomycin-induced lung fibrosis assessed as reduction in weight loss at 25 mg/kg dosed via oral gavage and measured for 7 to 14 days; type: functional, organism-based; settings: time day 7-14
[26] = test system: Mus musculus; experiment: Antifibrotic activity in C57BL/6 mouse model of bleomycin-induced lung fibrosis assessed as inhibition of pathological changes by measuring inflammatory infiltration in lung tissue at 25 to 50 mg/kg dosed via oral gavage for 14 days by H and E staining-based histopathological analysis; type: functional, organism-based; settings: dose mg/kg 25-50, time 14.0 day
[27] = test system: Mus musculus; experiment: Antifibrotic activity in bleomycin-induced C57BL/6 mouse model of lung fibrosis assessed as reduction in fibroblast differentiation by measuring alpha-SMA at 25 to 50 mg/kg dosed via oral gavage for 14 days by measuring reduction in alpha-SMA protein expression by immunohistochemical analysis; type: functional, organism-based; settings: dose mg/kg 25-50, time 14.0 day
[28] = test system: NIH3T3; experiment: Antifibrotic activity in mouse NIH3T3 cells assessed as up regulation of TGF-beta1 inhibited E-cadherin protein expression at 40 uM after 24 hrs by Western blotting analysis; type: functional, cell-based
[29] = test system: Mus musculus; experiment: Inhibition of epithelial-mesenchymal transition in C57BL/6 mouse model of bleomycin-induced lung fibrosis assessed as decrease in alpha-SMA protein expression in lung tissue at 25 to 50 mg/kg dosed via oral gavage for 14 days by Western blotting analysis; type: functional, organism-based; settings: dose mg/kg 25-50, time 14.0 day

`O=c1c(O)c(-c2ccccc2)oc2cc(O)cc(O)c12` [GALANGIN] was tested, and the Activity [1] was “Toxic”, the Activity [2] was “Active” and the Activity [3] was “Active”. For the same compound, the Activity [4] was “Active”, the Activity [5] was “Active” and the Activity [6] was “Active”. For the same compound, the Activity [7] was “Active”, the Activity [8] was “Dose-dependent effect” and the Activity [9] was “Active”. The Activity [10] was “inactive”, the Activity [11] was “Active” and the Activity [12] was “Active”. For the same compound, the Activity [13] was “inactive”, the Activity [14] was “Active” and the Activity [15] was “Active”. For the same compound, the Activity [16] was “Active”, the Activity [17] was “Active” and the Activity [18] was “Active”. For the same compound, the Activity [19] was “Active”, the Activity [20] was “inactive” and the Activity [21] was “Active”. The Activity [22] was “Active”, the Activity [23] was “Active” and the inhibition [24] was “Active”. The Activity [25] was “inactive”, the Activity [26] was “Active” and the Activity [27] was “Active”. The Activity [28] was “Active” and the Activity [29] was “Active”.

From ChEMBL document CHEMBL4725399, “Galangin ameliorated pulmonary fibrosis in vivo and in vitro by regulating epithelial-mesenchymal transition” (Bioorg Med Chem, 2020)
